The text below walks through data of article PMC5668434, “Modulation of telomere protection by the PI3K/AKT pathway” (Nature Communications, 2017).

Data set [1] relates to CHA-9.3 cell line. Kind of data set: Cytotoxicity in CHA-9.3 cells. The class given is cell-based, mouse. The note with it: 10 μM.
For data set [2], the system named is PI3Kα. The note with it: reported in literature; cited from earlier work.
Data set [3] relates to PI3Kβ. The note with it: reported in literature; cited from earlier work.
Data set [4] has as its system PI3Kδ. The note with it: reported in literature; cited from earlier work.
For data set [5], the system named is PI3Kγ. The following applies: reported in literature; cited from earlier work.
Data set [6] relates to mTOR 1. The note with it: reported in literature; cited from earlier work.
Data set [7] relates to mTOR 2. The following applies: reported in literature; cited from earlier work.
In data set [8] the target is T1, PI3K (p110α) (Homo sapiens, UniProt P42336).
T1 construct: purchased Cama Biosciences (sic; Carna Biosciences) #07CBS-0402A
T1 sequence (P42336 whole entry): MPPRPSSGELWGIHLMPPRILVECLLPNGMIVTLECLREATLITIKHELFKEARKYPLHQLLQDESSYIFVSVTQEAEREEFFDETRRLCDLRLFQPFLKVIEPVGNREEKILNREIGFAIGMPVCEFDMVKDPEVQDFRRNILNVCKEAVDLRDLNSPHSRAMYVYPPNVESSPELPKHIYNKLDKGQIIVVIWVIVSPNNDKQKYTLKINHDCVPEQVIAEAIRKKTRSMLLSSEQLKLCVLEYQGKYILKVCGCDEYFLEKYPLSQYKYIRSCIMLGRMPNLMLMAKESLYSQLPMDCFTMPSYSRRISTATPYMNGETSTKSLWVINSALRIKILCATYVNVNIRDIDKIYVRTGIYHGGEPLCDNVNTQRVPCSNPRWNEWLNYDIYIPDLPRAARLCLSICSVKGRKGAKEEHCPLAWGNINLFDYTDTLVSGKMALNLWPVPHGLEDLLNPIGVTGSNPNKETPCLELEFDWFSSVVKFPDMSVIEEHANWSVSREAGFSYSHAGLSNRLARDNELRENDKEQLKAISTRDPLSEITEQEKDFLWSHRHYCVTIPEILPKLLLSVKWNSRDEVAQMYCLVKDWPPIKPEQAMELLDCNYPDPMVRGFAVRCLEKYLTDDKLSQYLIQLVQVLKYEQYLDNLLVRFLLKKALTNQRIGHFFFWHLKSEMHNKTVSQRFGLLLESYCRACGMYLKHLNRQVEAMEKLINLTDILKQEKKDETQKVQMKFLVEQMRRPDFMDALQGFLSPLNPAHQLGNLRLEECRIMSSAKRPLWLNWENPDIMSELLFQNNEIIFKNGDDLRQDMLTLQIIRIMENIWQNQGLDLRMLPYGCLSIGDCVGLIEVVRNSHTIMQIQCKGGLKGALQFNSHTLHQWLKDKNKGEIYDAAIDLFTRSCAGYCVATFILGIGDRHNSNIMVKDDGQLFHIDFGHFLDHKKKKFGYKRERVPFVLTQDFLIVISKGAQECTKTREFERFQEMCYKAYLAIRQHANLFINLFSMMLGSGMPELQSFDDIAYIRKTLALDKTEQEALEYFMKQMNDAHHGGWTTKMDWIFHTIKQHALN
T1 sequence (P27986 whole entry partner): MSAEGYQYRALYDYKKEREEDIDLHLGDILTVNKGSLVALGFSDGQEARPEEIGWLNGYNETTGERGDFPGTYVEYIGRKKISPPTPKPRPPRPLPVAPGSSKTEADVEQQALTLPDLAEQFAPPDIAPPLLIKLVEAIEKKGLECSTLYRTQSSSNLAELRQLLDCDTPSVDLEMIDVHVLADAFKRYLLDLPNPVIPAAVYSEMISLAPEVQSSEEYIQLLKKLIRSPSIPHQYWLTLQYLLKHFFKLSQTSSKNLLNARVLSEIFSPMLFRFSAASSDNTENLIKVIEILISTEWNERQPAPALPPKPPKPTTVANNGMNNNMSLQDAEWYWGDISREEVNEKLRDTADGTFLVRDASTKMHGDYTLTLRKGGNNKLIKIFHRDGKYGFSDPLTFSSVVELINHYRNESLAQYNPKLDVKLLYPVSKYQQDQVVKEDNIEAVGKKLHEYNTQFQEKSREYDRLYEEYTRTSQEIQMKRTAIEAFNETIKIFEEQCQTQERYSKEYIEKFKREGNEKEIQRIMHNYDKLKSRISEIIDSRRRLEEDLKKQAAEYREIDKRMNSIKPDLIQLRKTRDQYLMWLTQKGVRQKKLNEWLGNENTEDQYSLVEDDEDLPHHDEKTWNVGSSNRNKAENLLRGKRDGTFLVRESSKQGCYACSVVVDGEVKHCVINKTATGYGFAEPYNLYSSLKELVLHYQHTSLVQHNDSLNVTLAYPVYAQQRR
Kind of data set: PI3K alpha biochemical assay (ADP Hunter Plus). The following applies: internal data; read-out: PI3Kα IC50.

Data set [9] addresses T2, mTOR (FRAP1) (Homo sapiens, UniProt P42345).
T2 construct: purchased ThermoFisher PV4753
Put plainly: mTOR biochemical assay (LanthaScreen). The following applies: internal data.

The test system of data set [10] is p-AKT S473 in CHA-9.3 mouse lung cancer cell line. Kind of data set: Western blot of AKT phosphorylation at Ser473 in CHA-9.3 cells. The class given is cell-based. The note with it: 10 μM (GSK-2126458 1.0 μM), 24 h. Here is the method:
These new chemical probes were prepared by replacement of a single key oxygen atom from the morpholine moiety by a methylene group, generating the piperidine derivatives ETP-51259 and ETP-50952 (Fig. 1a). To assess their PI3K cellular activity, we measured phosphorylation of residue Ser473 in AKT (p-AKT S473), a PI3K downstream target[61]–[63], by western blot analysis. To this end, we used the CHA-9.3 mouse lung cancer cell line previously generated by us[39]. […] Of note, the inhibitory activity of ETP-47037 was more prolonged than that of ETP-47228. Thus, ETP-47037 mediated p-AKT S473 inhibition was maintained during the 24-hour treatment while the ETP-47228 mediated inhibition decreased 35% after 24 h as compared to 1-h treatment but still was able to inhibit the pathway above 50% (Fig. 1c).
For detection of AKT, PRAS40 (T246) and pS6 in CHA9.3 cells, untreated control (DMSO) or treated with the indicated inhibitors, were lysed in RIPA buffer supplemented with 100 mM pefablock (Roche Diagnostics) and protease inhibitor cocktail (Roche Molecular Biochemicals). Proteins were resolved on 10% SDS-PAGE, and transferred to nitrocellulose membrane (Amersham^TM Protan^TM 0.2 µm nNC). Membranes were incubated with antibodies against phospho-AKT (Ser473), AKT, phospo-S6 (Ser 235/236), and S6Ribosomal from Cell Signaling, phospo-PRAS40 (Thr246) from BIOSURCE and anti α-tubulin form Sigma, overnight at 4 °C. After washing, blots were incubated with secondary antibody: Alexa Fluor 680 goat anti-rabbit IgG (Invitrogen) or anti-mouse IgG DyLight 800 conjugated (Thermo Scientific), and visualized using an Odyssey infrared imaging system (Li-Cor Biosciences).

Data set [11] deals with TRF1 foci in CHA-9.3 mouse lung tumor cell line. Kind of data set: TRF1 foci immunofluorescence in CHA-9.3 cells. It is filed as cell-based. Here is the method: (§1) TRF1 immunofluorescence of TRF1 was performed in lung tumor-derived cell line (CHA9.3) and in MEFs[39]. A rat monoclonal antibody against mouse TRF1 developed by the Monoclonal antibody unit at CNIO was used to detect endogenous TRF1 (1:500). GFP-TRF1 fluorescence was directly measured in cells fixed in paraformaldehyde. For quantification of TRF1 foci intensity, pictures of fixed cells were automatically acquired from each well by the Opera HCS system (Perkin Elmer). Sixty images of random fields per well, with a 40× magnification lens, were taken under non-saturating conditions. At least 1 × 10^3 cells were analyzed for each well. Briefly, images were segmented using the DAPI staining to generate masks matching cell nuclei from which-TRF1 foci were analyzed.

Data set [12] has as its system TRF1 foci in p53−/− mouse embryo fibroblasts (MEF). Put plainly: TRF1 foci immunofluorescence in p53−/− MEFs. The class given is cell-based. The following applies: 10 μM, 24 h. Here is the method:
We then checked whether PI3Kα/AKT inhibition also leads to decreased TRF1 foci in an additional cell type to CHA-9.3 cells. Thus, we used p53 ^−/− mouse embryo fibroblasts (MEF). We treated these MEFs either with the AKT inhibitor MK-2206 or with ETP-47037 at 10 μM concentration for 24 h and analyzed TRF1 foci by immunofluorescence.
as §1

The subject of data set [13] is CHA 9-3 cells. Put plainly: Multitelomeric signals (MTS) by Q-FISH on metaphase spreads. It is filed as cell-based, mouse. The note with it: 10 μM, 24 h. An excerpt: Trf1 abrogation is known to lead to a persistent DDR at telomeres, and to induction of telomere-induced chromosomal aberrations[28]–[30]. Trf1 genetic deletion induces the so-called multitelomeric signals (MTS), a chromosomal aberration related to increased telomere fragility during DNA replication, [29]. […] To this end, we treated CHA 9-3 cells with either DMSO, the AKT inhibitor MK-2206 (AKTi) and the PI3K inhibitors ETP-47037 or ETP-47228. For detection of MTS, we performed quantitative fluorescence in situ hybridization (Q-FISH) analysis on metaphase spreads using a telomeric probe to visualize telomeres (“Methods” section). MTS are visualized by presenting a multi-dot pattern at chromosome ends in contrast to normal telomeres that show a single dot at each chromosome end.
Lung cancer-derived cell line (CHA-9-3) and immortalized P110α ^lox/lox MEFS were treated either with 10 µM of ETP-47037, ETP-47228, or AKTi (MK-2206) for 24 h. Q-FISH in metaphase spreads was performed as described above, but increasing the concentration of formamide in both the incubation and the washes to 70%.

Data set [14] concerns TRF1 mRNA in CHA 9-3 lung cancer cells. Kind of data set: TRF1 mRNA by qPCR. The following applies: 10 μM, 24 h. The class given is cell-based, mouse. (In general: In qPCR the cycle at which signal appears reflects the starting amount.)
In data set [15] the test system is TRF1 protein in CHA 9-3 nuclear extracts. Put plainly: Western blot of nuclear TRF1 in CHA 9-3 cells. The class given is cell-based, mouse. The note with it: 10 μM. On the procedure: (§2) Blots were incubated with the primary antibodies anti-TRF1 1:500 (home-made monoclonal Rat, CNIO; TRF-78, ABCAM, ab10579) and with anti-SMC1 1:2000 (Bethyl Laboratories #A300-055A) as loading control. For nuclear protein preparation, the Nuclear/Cytosol Fractionation Kit (K266-100, BioVision) was used according to the manufactures protocol.
In general terms: In western blotting, separated proteins are transferred to a membrane and probed.

Data set [16] concerns TRF1 protein in p53−/− MEFs nuclear extracts. Kind of data set: Western blot of nuclear TRF1 in p53−/− MEFs. It is filed as cell-based, mouse. The following applies: 10 μM. Here is the method: as §2
The target of data set [17] is T3, human AKT1 (Homo sapiens, UniProt P31749).
T3 construct: purchased ProQinase 1379-0000-2
T3 sequence (P31749 whole entry): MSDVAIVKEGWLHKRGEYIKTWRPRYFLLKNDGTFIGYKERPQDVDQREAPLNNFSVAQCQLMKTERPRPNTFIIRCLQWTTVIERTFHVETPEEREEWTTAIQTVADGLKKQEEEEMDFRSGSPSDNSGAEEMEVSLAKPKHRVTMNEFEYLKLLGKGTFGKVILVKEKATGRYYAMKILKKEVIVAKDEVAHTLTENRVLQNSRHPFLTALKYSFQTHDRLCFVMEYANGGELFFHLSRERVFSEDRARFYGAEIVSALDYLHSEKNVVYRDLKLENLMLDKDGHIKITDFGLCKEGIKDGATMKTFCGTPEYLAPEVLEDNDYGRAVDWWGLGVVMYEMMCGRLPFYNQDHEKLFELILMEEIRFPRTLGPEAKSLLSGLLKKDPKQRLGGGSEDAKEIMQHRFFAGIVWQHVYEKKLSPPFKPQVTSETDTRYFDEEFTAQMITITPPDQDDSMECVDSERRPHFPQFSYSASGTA
Kind of data set: In vitro TRF1 phosphorylation by AKT1. The class given is biochemical. The note with it: MK-2206 25 μM. On the procedure: To address whether TRF1 is a direct substrate of AKT, affinity purified GST-TRF1 was incubated with purified human AKT1 (1379-0000-2, ProQinase) in the presence of γ-^32ATP. As positive control, a GSK3 (14-27) peptide (0349-0000-5, prokinase) was also used as substrate. AKT1 yielded a TRF1 phosphorylation signal after incubation with purified GST-TRF1 during 1 h, which was decreased in the presence of AKT inhibitor (see asterisk in Fig. 5a, left). AKT1 also yielded a phosphorylation signal in the positive control peptide GSK3 (14-27) that was reduced in the presence of AKT inhibitor (Fig. 5a, right). An autophospholyration activity of AKT1 was detected after 1 h of incubation and this activity was reduced in the presence of AKT inhibitor (Fig. 5a). Together, these findings indicate that TRF1 is a direct substrate of AKT1.
One μg of purified GST-TRF1 was incubated with 0.2 μg of human GST-AKT1 (1379-0000-2, ProQinase) with or without AKT inhibitor (MK-2206, 25 μM) in kinase buffer (50 mM Hepes pH 7.9, 100 μM ATP, 10 mM MgCl2, 5 mM DTT) containing 5 μCi [γ-^32-P]ATP in a total volume of 25 μl. The peptide RBER-GSK3(14-27) (0349-0000-5, ProQinase) (100 ng) was used as positive control. The reactions were performed at 30 °C for […] and stopped by addition of Lamely buffer (6×). Samples were resolved in 4–12% SDS-PAGE gels and subjected to autoradiography.

For data set [18], the system named is Akt1. Further details: method as in earlier work. The note with it: reported in literature; read-out: Reported data IC50 Akt 1; cited from earlier work.
In data set [19] the test system is Akt2. On the set-up: method as in earlier work. The following applies: reported in literature; read-out: Reported data IC50 Akt 2; cited from earlier work.
Data set [20] has as its system Akt3. On the set-up: method as in earlier work. The note with it: reported in literature; read-out: Reported data IC50 Akt 3; cited from earlier work.

By IC50 is commonly meant the concentration needed to halve the response being measured.

T2 sequence (P42345 1360-2549 limits assumed): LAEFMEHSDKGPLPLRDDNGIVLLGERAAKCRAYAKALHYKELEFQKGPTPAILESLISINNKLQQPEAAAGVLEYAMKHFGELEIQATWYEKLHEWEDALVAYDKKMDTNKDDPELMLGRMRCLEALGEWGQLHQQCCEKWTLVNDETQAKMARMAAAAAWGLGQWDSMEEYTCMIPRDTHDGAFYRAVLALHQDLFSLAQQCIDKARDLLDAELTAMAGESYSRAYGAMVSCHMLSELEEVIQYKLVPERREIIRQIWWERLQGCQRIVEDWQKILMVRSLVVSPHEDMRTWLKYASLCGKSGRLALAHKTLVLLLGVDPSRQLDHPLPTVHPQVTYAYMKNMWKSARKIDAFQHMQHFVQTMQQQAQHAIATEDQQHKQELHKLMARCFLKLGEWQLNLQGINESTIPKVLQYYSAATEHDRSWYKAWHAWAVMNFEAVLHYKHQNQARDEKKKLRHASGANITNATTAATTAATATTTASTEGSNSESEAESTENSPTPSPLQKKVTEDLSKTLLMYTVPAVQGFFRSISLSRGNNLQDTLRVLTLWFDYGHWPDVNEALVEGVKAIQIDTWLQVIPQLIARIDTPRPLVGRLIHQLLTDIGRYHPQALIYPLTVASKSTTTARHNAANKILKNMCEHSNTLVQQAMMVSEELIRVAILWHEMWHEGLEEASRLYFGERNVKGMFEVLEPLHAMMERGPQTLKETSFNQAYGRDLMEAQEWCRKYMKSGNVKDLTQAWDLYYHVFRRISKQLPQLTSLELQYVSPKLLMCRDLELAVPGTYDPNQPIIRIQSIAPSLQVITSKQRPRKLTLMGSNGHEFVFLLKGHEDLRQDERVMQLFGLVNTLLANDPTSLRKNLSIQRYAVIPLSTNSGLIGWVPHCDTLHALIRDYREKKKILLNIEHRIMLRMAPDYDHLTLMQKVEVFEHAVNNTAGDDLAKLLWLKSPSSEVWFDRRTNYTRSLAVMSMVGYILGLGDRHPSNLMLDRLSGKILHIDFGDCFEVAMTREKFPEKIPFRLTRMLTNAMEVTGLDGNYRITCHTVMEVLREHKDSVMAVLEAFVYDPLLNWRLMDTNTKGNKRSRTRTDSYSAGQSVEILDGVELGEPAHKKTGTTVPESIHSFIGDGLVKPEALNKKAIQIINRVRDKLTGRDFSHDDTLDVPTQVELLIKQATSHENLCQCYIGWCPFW

With `COc1ncc(-c2ccc3nccc(-c4ccnnc4)c3c2)cc1NS(=O)(=O)c1ccc(F)cc1F` [GSK-2126458], the Cytotoxicity entry in [1] was “high cytotoxicity”. The IC50 in data set [2] is […]; in data set [3], […]; in data set [4], […]; in data set [5], […]; in data set [6] it was 0.18 nM; in data set [7], 0.3 nM.
Regarding `NC1(c2ccc(-c3nc4ccn5c(=O)[nH]nc5c4cc3-c3ccccc3)cc2)CCC1` [MK-2206, reference compound], the IC50 in data set [8] is 34.3 nM; in data set [9], greater than 10000 nM; in data set [18], 8 nM; in data set [19], 12 nM; in [20] it was 65 nM. In [10], the “Phosphorylation of AKT (p-AKT S473) (in words)” value is recorded as “strong inhibition”. Besides, the “Inhibition of TRF1 foci (in words)” value in data set [11] (10 μM (GSK-2126458 1.0 μM), 24 h, CHA-9.3) was “effectively inhibited TRF1 foci”. Moreover, in [11] (10 μM plus bortezomib 50 nM, CHA 9-3), the “TRF1 levels as compared to bortezomib/DMSO-treated control cells” value is “significantly lower”. Further, the “Reduction in TRF1 foci intensity” value in [12] is on record as 22%. In data set [13], the “Frequency of MTS events per metaphase compared to DMSO” value is given as “significantly increased”. Besides, the “TRF1 mRNA levels” value in data set [14] is “None of the inhibitors significantly affected”. Further, the “TRF1 protein levels in nuclear extracts” value in [15] is “significantly decreased”. In addition, the “Total nuclear TRF1 levels compared to DMSO” value in [16] is reported as “decreased”. For the same compound, the “Autophosphorylation activity of AKT1” value in data set [17] (1 h) was “reduced”. In [17], the “Phosphorylation signal of control peptide GSK3 (14-27) by AKT1” value was “reduced”. In [17] (purified GST-TRF1, 1 h), the “TRF1 phosphorylation signal by AKT1” value is given as “decreased”.
